Experimental data: PubChem BioAssay AID2060504 (Molecular Pharmacology Branch, DTP, NCI, 2025)
pIC50: −log10 of the molar value.

Test system: 636577-100-R-J1-PDC complex spheroid viability
Assay: Anticancer human tumor 636577-100-R-J1-PDC patient-derived endometrial adenocarcinoma cell line growth inhibition [GQUAD]
Conditions: for pIC50: curve of first compound; for viability, T/C: stronger effect = lower value
Outline: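 Viability of tumor cells grown as complex spheroids with endothelial and stromal cells, exposed to drug combinations. Top concentration at or near clinical Cmax (else 10 microM), diluted in half-log increments.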

[1] = second compound 0.0316 µM, first compound 0.0316 µM
[2] = second compound 0.0316 µM, first compound 0.1 µM
[3] = second compound 0.0316 µM, first compound 0.316 µM
[4] = second compound 0.0316 µM, first compound 1 µM
[5] = second compound 0.0316 µM, first compound 3.16 µM
[6] = second compound 0.0316 µM, first compound 10 µM
[7] = second compound 0.1 µM, first compound 0.0316 µM
[8] = second compound 0.1 µM, first compound 0.1 µM
[9] = second compound 0.1 µM, first compound 0.316 µM
[10] = second compound 0.1 µM, first compound 1 µM
[11] = second compound 0.1 µM, first compound 3.16 µM
[12] = second compound 0.1 µM, first compound 10 µM
[13] = second compound 0.316 µM, first compound 0.0316 µM
[14] = second compound 0.316 µM, first compound 0.1 µM
[15] = second compound 0.316 µM, first compound 0.316 µM
[16] = second compound 0.316 µM, first compound 1 µM
[17] = second compound 0.316 µM, first compound 3.16 µM
[18] = second compound 0.316 µM, first compound 10 µM
[19] = second compound 1 µM, first compound 0.0316 µM
[20] = second compound 1 µM, first compound 0.1 µM
[21] = second compound 1 µM, first compound 0.316 µM
[22] = second compound 1 µM, first compound 1 µM
[23] = second compound 1 µM, first compound 3.16 µM
[24] = second compound 1 µM, first compound 10 µM
[25] = second compound 3.16 µM, first compound 0.0316 µM
[26] = second compound 3.16 µM, first compound 0.1 µM
[27] = second compound 3.16 µM, first compound 0.316 µM
[28] = second compound 3.16 µM, first compound 1 µM
[29] = second compound 3.16 µM, first compound 3.16 µM
[30] = second compound 3.16 µM, first compound 10 µM
[31] = second compound 10 µM, first compound 0.0316 µM
[32] = second compound 10 µM, first compound 0.1 µM
[33] = second compound 10 µM, first compound 0.316 µM
[34] = second compound 10 µM, first compound 1 µM
[35] = second compound 10 µM, first compound 3.16 µM
[36] = second compound 10 µM, first compound 10 µM
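Also: viability read after seven days of drug exposure.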
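For viability, T/C in this document: luminescence signal used as a proxy for viable cells; 100% = DMSO vehicle control wells.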

Question: Which results are given for O=C(NO)c1cnc(N2CCN(S(=O)(=O)c3ccc4ccccc4c3)CC2)nc1 + CN(C)c1ccc(Nc2c3ccc(NC(=O)CCN4CCCC4)cc3nc3cc(NC(=O)CCN4CCCC4)ccc23)cc1?
Answer: pIC50 (second compound 0.0316 µM): > 7.50; pIC50 (second compound 0.1 µM): > 7.50; pIC50 (second compound 0.316 µM): > 7.50; pIC50 (second compound 1 µM): > 7.50; pIC50 (second compound 3.16 µM): > 7.50; pIC50 (second compound 10 µM): > 7.50; viability, T/C [1]: 30.3%; viability, T/C [2]: 14.9%; viability, T/C [3]: 6.37%; viability, T/C [4]: 6.45%; viability, T/C [5]: 0.17%; viability, T/C [6]: 0.08%; viability, T/C [7]: 34.5%; viability, T/C [8]: 15.9%; viability, T/C [9]: 6.15%; viability, T/C [10]: 6.73%; viability, T/C [11]: 0.15%; viability, T/C [12]: 0.08%; viability, T/C [13]: 30.4%; viability, T/C [14]: 18.8%; viability, T/C [15]: 6.26%; viability, T/C [16]: 5.85%; viability, T/C [17]: 0.15%; viability, T/C [18]: 0.1%; viability, T/C [19]: 26.3%; viability, T/C [20]: 15.7%; viability, T/C [21]: 7.08%; viability, T/C [22]: 7.15%; viability, T/C [23]: 0.24%; viability, T/C [24]: 0.08%; viability, T/C [25]: 25.1%; viability, T/C [26]: 15.6%; viability, T/C [27]: 8.28%; viability, T/C [28]: 6.85%; viability, T/C [29]: 0.21%; viability, T/C [30]: 0.08%; viability, T/C [31]: 7.11%; viability, T/C [32]: 4.48%; viability, T/C [33]: 5.08%; viability, T/C [34]: 6.28%; viability, T/C [35]: 0.12%; viability, T/C [36]: 0.08%

Question: Which results are given for C=CCn1c(=O)c2cnc(Nc3ccc(N4CCN(C)CC4)cc3)nc2n1-c1cccc(C(C)(C)O)n1 + CN(C)c1ccc(Nc2c3ccc(NC(=O)CCN4CCCC4)cc3nc3cc(NC(=O)CCN4CCCC4)ccc23)cc1?
Answer: pIC50 (second compound 0.0316 µM): 6.22; pIC50 (second compound 0.1 µM): 6.52; pIC50 (second compound 0.316 µM): 6.42; pIC50 (second compound 1 µM): 6.45; pIC50 (second compound 3.16 µM): > 7.50; pIC50 (second compound 10 µM): > 7.50; viability, T/C [1]: 88.3%; viability, T/C [2]: 67.3%; viability, T/C [3]: 81.4%; viability, T/C [4]: 26.6%; viability, T/C [5]: 15.9%; viability, T/C [6]: 9.28%; viability, T/C [7]: 107%; viability, T/C [8]: 73.6%; viability, T/C [9]: 51.7%; viability, T/C [10]: 28.9%; viability, T/C [11]: 15.1%; viability, T/C [12]: 9.88%; viability, T/C [13]: 88.3%; viability, T/C [14]: 69.2%; viability, T/C [15]: 57.7%; viability, T/C [16]: 30.9%; viability, T/C [17]: 15.2%; viability, T/C [18]: 9.64%; viability, T/C [19]: 48.6%; viability, T/C [20]: 63%; viability, T/C [21]: 52.1%; viability, T/C [22]: 32%; viability, T/C [23]: 19.2%; viability, T/C [24]: 11.6%; viability, T/C [25]: 37.6%; viability, T/C [26]: 36.8%; viability, T/C [27]: 30.9%; viability, T/C [28]: 23.8%; viability, T/C [29]: 16.5%; viability, T/C [30]: 10.8%; viability, T/C [31]: 5.9%; viability, T/C [32]: 4.13%; viability, T/C [33]: 3.79%; viability, T/C [34]: 3.8%; viability, T/C [35]: 2.91%; viability, T/C [36]: 0.74%

Question: With COc1ccc([C@@H](O)c2cc(-c3ncnc4cc(N5CCOCC5)ccc34)c(F)cc2Cl)nn1 + Cc1[nH]c2ccc(F)cc2c1-c1nc2c3cccnc3c3ncccc3c2[nH]1 as the compound, how does the pIC50 (second compound 0.0316 µM) read?
Answer: 6.17

Question: What about the pIC50 (second compound 0.1 µM) of the same compound?
Answer: 6.23

Question: And the pIC50 (second compound 0.316 µM)?
Answer: 6.17

Question: What about the pIC50 (second compound 1 µM) of the same compound?
Answer: 5.97

Question: And the pIC50 (second compound 3.16 µM)?
Answer: > 7.50

Question: And the pIC50 (second compound 10 µM)?
Answer: 6.07

Question: And the viability, T/C [1]?
Answer: 59.3%

Question: And the viability, T/C [2]?
Answer: 79.9%

Question: And the viability, T/C [3]?
Answer: 103%

Question: What about the viability, T/C [4] of the same compound?
Answer: 26.9%

Question: And the viability, T/C [5]?
Answer: 47.1%

Question: What about the viability, T/C [6] of the same compound?
Answer: 26.8%

Question: And the viability, T/C [7]?
Answer: 44.1%

Question: And the viability, T/C [8]?
Answer: 105%

Question: And the viability, T/C [9]?
Answer: 63.6%

Question: And the viability, T/C [10]?
Answer: 31.3%

Question: What about the viability, T/C [11] of the same compound?
Answer: 54.6%

Question: And the viability, T/C [12]?
Answer: 28.8%

Question: And the viability, T/C [13]?
Answer: 72.8%

Question: What about the viability, T/C [14] of the same compound?
Answer: 105%

Question: What about the viability, T/C [15] of the same compound?
Answer: 66%

Question: And the viability, T/C [16]?
Answer: 47.4%

Question: And the viability, T/C [17]?
Answer: 48.6%

Question: What about the viability, T/C [18] of the same compound?
Answer: 30.1%

Question: What about the viability, T/C [19] of the same compound?
Answer: 71%

Question: And the viability, T/C [20]?
Answer: 63.6%

Question: What about the viability, T/C [21] of the same compound?
Answer: 60.5%

Question: What about the viability, T/C [22] of the same compound?
Answer: 53.6%

Question: What about the viability, T/C [23] of the same compound?
Answer: 35%

Question: What about the viability, T/C [24] of the same compound?
Answer: 24.8%

Question: What about the viability, T/C [25] of the same compound?
Answer: 40%

Question: What about the viability, T/C [26] of the same compound?
Answer: 38.4%

Question: And the viability, T/C [27]?
Answer: 43.3%

Question: What about the viability, T/C [28] of the same compound?
Answer: 33.5%

Question: And the viability, T/C [29]?
Answer: 20.1%

Question: And the viability, T/C [30]?
Answer: 16%

Question: What about the viability, T/C [31] of the same compound?
Answer: 70.2%

Question: What about the viability, T/C [32] of the same compound?
Answer: 62.5%

Question: And the viability, T/C [33]?
Answer: 64.2%

Question: And the viability, T/C [34]?
Answer: 44.8%

Question: And the viability, T/C [35]?
Answer: 36.7%

Question: And the viability, T/C [36]?
Answer: 22.3%
